Here are results for 20 molecules from US20240336565A1, “SOLID FORMS OF OSANETANT” (Acer Therapeutics, Inc., priority 2021, published 2024).

A short description of this series: Salt screen: XRPD of isolated solids after drying at 40° C. and at 40° C./75% RH. It is filed as physicochemical. The conditions noted are these: for XRPD after drying at 40° C./75% RH: after 40° C. drying, dried at 40° C./75% RH for about 24 h, label = form after 40° C. drying; for XRPD after drying at 40° C.: isolated solids dried at 40° C. for about 24 h, label = wet form. As to the method:
To approximately 20 mg of amorphous lyophilized osanetant was added 0.3 mL of solvent for liquid counterion experiments. 0.2 mL of solvent was employed for solid counterion experiments. […] To the stirring mixture was then added 1.05 mol eq. of the appropriate counterion. Where solid counterions were used, the vial which contained the counterion was washed in to the osanetant containing vial with 0.1 mL of the appropriate solvent. Additional solvent was added where necessary. The experiments were thermally cycled as follows: heated from 25 to 40° C. at a rate of 0.1° C./min; 1 h at 40° C.; Cool to 5° C. at a rate of 0.1° C.; 1 h at 5° C.; 40° C. at a rate of 0.1° C./min; […] The crystallization experiments were thermally cycled overnight, then slurries were isolated by centrifugation. XRPD analysis was carried out on any isolated solids or gums. The XRPD plate, and the isolated solids, were then dried at 40° C. for about 24 h, and XRPD analysis was repeated. The XRPD plate was then dried at 40° C./75% RH for about 24 h and XRPD analysis was again repeated. All other samples were allowed to evaporated at ambient temperature and pressure.

“Also recorded” adds a separate entry of the source.

As for `CC(=O)N(C)C1(c2ccccc2)CCN(CCC[C@]2(c3ccc(Cl)c(Cl)c3)CCCN(C(=O)c3ccccc3)C2)CC1.O=C(O)C(O)C(O)C(=O)O` [osanetant L-tartaric acid Form 1], the “XRPD after drying at 40° C./75% RH” value was “crystallinity was lost” and the “XRPD after drying at 40° C.” value is listed as “no change”.

As for `CC(=O)N(C)C1(c2ccccc2)CCN(CCCC2(c3ccc(Cl)c(Cl)c3)CCCN(C(=O)c3ccccc3)C2)CC1.O=C(O)C(O)C(O)C(=O)O` [osanetant L-tartaric acid Form 2], the “XRPD after drying at 40° C./75% RH” value was “crystallinity was lost” and the “XRPD after drying at 40° C.” value is listed as “no change”.

For the molecule `CC(=O)N(C)C1(c2ccccc2)CCN(CCC[C@]2(c3ccc(Cl)c(Cl)c3)CCCN(C(=O)c3ccccc3)C2)CC1.CC(=O)O` [osanetant acetic acid Form 1, (R)-N-(1-(3-(1-benzoyl-3-(3,4-dichlorophenyl)piperidin-3-yl)propyl)-4-phenylpiperidin-4-yl)-N-methylacetamide acetic acid], the “XRPD after drying at 40° C.” value is “changed form on drying at 40 °C to Pattern 2”.

With `CC(=O)N(C)C1(c2ccccc2)CCN(CCC[C@]2(c3ccc(Cl)c(Cl)c3)CCCN(C(=O)c3ccccc3)C2)CC1.CC(=O)O` [osanetant acetic acid Form 2, (R)-N-(1-(3-(1-benzoyl-3-(3,4-dichlorophenyl)piperidin-3-yl)propyl)-4-phenylpiperidin-4-yl)-N-methylacetamide acetic acid], the “XRPD after drying at 40° C./75% RH” value (acetic acid) is reported as “retained; also recorded: stable”.

With `CC(=O)N(C)C1(c2ccccc2)CCN(CCC[C@]2(c3ccc(Cl)c(Cl)c3)CCCN(C(=O)c3ccccc3)C2)CC1.O=S(=O)(O)c1ccccc1` [osanetant benzenesulfonic acid Form 2, (R)-N-(1-(3-(1-benzoyl-3-(3,4-dichlorophenyl)piperidin-3-yl)propyl)-4-phenylpiperidin-4-yl)-N-methylacetamide benzenesulfonic acid], the “XRPD after drying at 40° C./75% RH” value was “converted to Pattern 1; also recorded: Form 1”.

As for `CC(=O)N(C)C1(c2ccccc2)CCN(CCC[C@]2(c3ccc(Cl)c(Cl)c3)CCCN(C(=O)c3ccccc3)C2)CC1.O=S(=O)(O)c1ccccc1` [osanetant benzenesulfonic acid Form 4, (R)-N-(1-(3-(1-benzoyl-3-(3,4-dichlorophenyl)piperidin-3-yl)propyl)-4-phenylpiperidin-4-yl)-N-methylacetamide benzenesulfonic acid], the “XRPD after drying at 40° C./75% RH” value is recorded as “converted to Pattern 1; also recorded: Form 1**” and the “XRPD after drying at 40° C.” value is on record as “Form 4”.

As to `CC(=O)N(C)C1(c2ccccc2)CCN(CCC[C@]2(c3ccc(Cl)c(Cl)c3)CCCN(C(=O)c3ccccc3)C2)CC1.O=C(O)c1ccccc1` [osanetant benzoic acid Form 1, (R)-N-(1-(3-(1-benzoyl-3-(3,4-dichlorophenyl)piperidin-3-yl)propyl)-4-phenylpiperidin-4-yl)-N-methylacetamide benzoic acid], the “XRPD after drying at 40° C./75% RH” value is “no change in form; also recorded: stable” and the “XRPD after drying at 40° C.” value was “no change in form”.

On to `CC(=O)N(C)C1(c2ccccc2)CCN(CCC[C@]2(c3ccc(Cl)c(Cl)c3)CCCN(C(=O)c3ccccc3)C2)CC1.CCS(=O)(=O)O` [osanetant ethanesulfonic acid Form 1, (R)-N-(1-(3-(1-benzoyl-3-(3,4-dichlorophenyl)piperidin-3-yl)propyl)-4-phenylpiperidin-4-yl)-N-methylacetamide ethanesulfonic acid], for which the “XRPD after drying at 40° C.” value is “Form 2”.

On to `CC(=O)N(C)C1(c2ccccc2)CCN(CCC[C@]2(c3ccc(Cl)c(Cl)c3)CCCN(C(=O)c3ccccc3)C2)CC1.CCS(=O)(=O)O` [osanetant ethanesulfonic acid Form 2, (R)-N-(1-(3-(1-benzoyl-3-(3,4-dichlorophenyl)piperidin-3-yl)propyl)-4-phenylpiperidin-4-yl)-N-methylacetamide ethanesulfonic acid], for which the “XRPD after drying at 40° C./75% RH” value was “Amorphous”.

Turning to `CC(=O)N(C)C1(c2ccccc2)CCN(CCC[C@]2(c3ccc(Cl)c(Cl)c3)CCCN(C(=O)c3ccccc3)C2)CC1.O=C(O)/C=C/C(=O)O` [osanetant fumaric acid Form 1], the “XRPD after drying at 40° C./75% RH” value is on record as “crystallinity was lost” and the “XRPD after drying at 40° C.” value was “no change”.

For the molecule `CC(=O)N(C)C1(c2ccccc2)CCN(CCC[C@]2(c3ccc(Cl)c(Cl)c3)CCCN(C(=O)c3ccccc3)C2)CC1.CS(=O)(=O)O` [osanetant methanesulfonic acid Form 1, (R)-N-(1-(3-(1-benzoyl-3-(3,4-dichlorophenyl)piperidin-3-yl)propyl)-4-phenylpiperidin-4-yl)-N-methylacetamide methanesulfonic acid], the “XRPD after drying at 40° C./75% RH” value is listed as “Amorphous” and the “XRPD after drying at 40° C.” value is given as “Form 1”.

Consider `CC(=O)N(C)C1(c2ccccc2)CCN(CCC[C@]2(c3ccc(Cl)c(Cl)c3)CCCN(C(=O)c3ccccc3)C2)CC1.CS(=O)(=O)O` [osanetant methanesulfonic acid Form 2, (R)-N-(1-(3-(1-benzoyl-3-(3,4-dichlorophenyl)piperidin-3-yl)propyl)-4-phenylpiperidin-4-yl)-N-methylacetamide methanesulfonic acid], for which the “XRPD after drying at 40° C./75% RH” value is given as “Amorphous” and the “XRPD after drying at 40° C.” value is “Form 2”.

Consider `CC(=O)N(C)C1(c2ccccc2)CCN(CCC[C@]2(c3ccc(Cl)c(Cl)c3)CCCN(C(=O)c3ccccc3)C2)CC1.Cc1ccc(S(=O)(=O)O)cc1` [osanetant p-toluenesulfonic acid Form 2, (R)-N-(1-(3-(1-benzoyl-3-(3,4-dichlorophenyl)piperidin-3-yl)propyl)-4-phenylpiperidin-4-yl)-N-methylacetamide p-toluenesulfonic acid], for which the “XRPD after drying at 40° C./75% RH” value is listed as “converted to Pattern 1; also recorded: Form 1” and the “XRPD after drying at 40° C.” value was “retained; also recorded: Form 2”.

With `CC(=O)N(C)C1(c2ccccc2)CCN(CCC[C@]2(c3ccc(Cl)c(Cl)c3)CCCN(C(=O)c3ccccc3)C2)CC1.Cc1ccc(S(=O)(=O)O)cc1` [osanetant p-toluenesulfonic acid Form 3, (R)-N-(1-(3-(1-benzoyl-3-(3,4-dichlorophenyl)piperidin-3-yl)propyl)-4-phenylpiperidin-4-yl)-N-methylacetamide p-toluenesulfonic acid], the “XRPD after drying at 40° C.” value is “converted to Pattern 4; also recorded: Form 4”.

Take `CC(=O)N(C)C1(c2ccccc2)CCN(CCC[C@]2(c3ccc(Cl)c(Cl)c3)CCCN(C(=O)c3ccccc3)C2)CC1.Cc1ccc(S(=O)(=O)O)cc1` [osanetant p-toluenesulfonic acid Form 4, (R)-N-(1-(3-(1-benzoyl-3-(3,4-dichlorophenyl)piperidin-3-yl)propyl)-4-phenylpiperidin-4-yl)-N-methylacetamide p-toluenesulfonic acid]: the “XRPD after drying at 40° C./75% RH” value is listed as “lost crystallinity; also recorded: Amorphous”.

As to `CC(=O)N(C)C1(c2ccccc2)CCN(CCC[C@]2(c3ccc(Cl)c(Cl)c3)CCCN(C(=O)c3ccccc3)C2)CC1.O=P(O)(O)O` [osanetant phosphoric acid Form 1, (R)-N-(1-(3-(1-benzoyl-3-(3,4-dichlorophenyl)piperidin-3-yl)propyl)-4-phenylpiperidin-4-yl)-N-methylacetamide phosphoric acid], the “XRPD after drying at 40° C./75% RH” value is on record as “converted to Pattern 4; also recorded: Form 4” and the “XRPD after drying at 40° C.” value is given as “Form 1”.

Take `CC(=O)N(C)C1(c2ccccc2)CCN(CCC[C@]2(c3ccc(Cl)c(Cl)c3)CCCN(C(=O)c3ccccc3)C2)CC1.O=P(O)(O)O` [osanetant phosphoric acid Form 2, (R)-N-(1-(3-(1-benzoyl-3-(3,4-dichlorophenyl)piperidin-3-yl)propyl)-4-phenylpiperidin-4-yl)-N-methylacetamide phosphoric acid]: the “XRPD after drying at 40° C./75% RH” value was “converted to Pattern 4; also recorded: Form 4*” and the “XRPD after drying at 40° C.” value is reported as “Form 2”.

As to `CC(=O)N(C)C1(c2ccccc2)CCN(CCC[C@]2(c3ccc(Cl)c(Cl)c3)CCCN(C(=O)c3ccccc3)C2)CC1.O=P(O)(O)O` [osanetant phosphoric acid Form 3, (R)-N-(1-(3-(1-benzoyl-3-(3,4-dichlorophenyl)piperidin-3-yl)propyl)-4-phenylpiperidin-4-yl)-N-methylacetamide phosphoric acid], the “XRPD after drying at 40° C./75% RH” value is “retained; also recorded: stable; also recorded: Form 3” and the “XRPD after drying at 40° C.” value was “Form 3”.

For `CC(=O)N(C)C1(c2ccccc2)CCN(CCC[C@]2(c3ccc(Cl)c(Cl)c3)CCCN(C(=O)c3ccccc3)C2)CC1.O=P(O)(O)O` [osanetant phosphoric acid Form 4, (R)-N-(1-(3-(1-benzoyl-3-(3,4-dichlorophenyl)piperidin-3-yl)propyl)-4-phenylpiperidin-4-yl)-N-methylacetamide phosphoric acid], the “XRPD after drying at 40° C./75% RH” value is “stable”.

Regarding `CC(=O)N(C)C1(c2ccccc2)CCN(CCC[C@]2(c3ccc(Cl)c(Cl)c3)CCCN(C(=O)c3ccccc3)C2)CC1.O=S(=O)(O)O` [osanetant sulfuric acid Form 1, (R)-N-(1-(3-(1-benzoyl-3-(3,4-dichlorophenyl)piperidin-3-yl)propyl)-4-phenylpiperidin-4-yl)-N-methylacetamide sulfuric acid], the “XRPD after drying at 40° C.” value is given as “Form 2”.
